Data reported in PubChem BioAssay (NCI).
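Values below derive from 48-hour exposures of cells grown in 96-well plates, with endpoints linearly interpolated between the two concentrations bracketing the appropriate inhibition level. Abbreviation: GI50, concentration required for 50% inhibition of growth. TGI marks complete inhibition of growth.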

Columns and labels:
Assay in all cases: inhibition of tumour cell growth, NCI panel, 48 h
UACC-257 melanoma = tested on: UACC-257 melanoma
COLO 205 colon = tested on: COLO 205 colon
IGROV1 ovarian = tested on: IGROV1 ovarian
EKVX NSCLC = tested on: EKVX NSCLC
MALME-3M melanoma = tested on: MALME-3M melanoma
UO-31 renal = tested on: UO-31 renal
HCC-2998 colon = tested on: HCC-2998 colon
K-562 leukemia = tested on: K-562 leukemia
SF-295 CNS = tested on: SF-295 CNS
NCI-H522 lung = tested on: NCI-H522 lung

Compound | GI50 (UACC-257 melanoma) | TGI (UACC-257 melanoma) | GI50 (COLO 205 colon) | TGI (COLO 205 colon) | GI50 (IGROV1 ovarian) | TGI (IGROV1 ovarian) | GI50 (EKVX NSCLC) | TGI (EKVX NSCLC) | GI50 (MALME-3M melanoma) | TGI (MALME-3M melanoma) | GI50 (UO-31 renal) | TGI (UO-31 renal) | GI50 (HCC-2998 colon) | TGI (HCC-2998 colon) | GI50 (K-562 leukemia) | TGI (K-562 leukemia) | GI50 (SF-295 CNS) | TGI (SF-295 CNS) | GI50 (NCI-H522 lung) | TGI (NCI-H522 lung)
C[C@H]1O[C@@H](O[C@H]2[C@@H](O)C[C@H](O[C@H]3[C@@H](O)C[C@H](O[C@H]4CC[C@]5(C)C6C[C@@H](O)[C@]7(C)[C@@H](C8=CC(=O)OC8)CC[C@]7(O)C6CC[C@@H]5C4)O[C@@H]3C)O[C@@H]2C)C[C@H](O)[C@@H]1O (stereo not given in full) | 0.101 µM | 0.237 µM | 0.146 µM | 0.374 µM | 0.145 µM | 3.45 µM | 0.0377 µM | 0.124 µM | 0.115 µM | 0.262 µM | 0.0836 µM | 0.166 µM | 0.147 µM | 0.486 µM | 0.117 µM | 0.413 µM | 0.0595 µM | 0.233 µM | 0.015 µM | 0.0695 µM
Oc1c(Cl)cc(C(c2cc(Cl)c(O)c(Cl)c2)C(c2cc(Cl)c(O)c(Cl)c2)c2cc(Cl)c(O)c(Cl)c2)cc1Cl | 7.75 µM | 23.9 µM | 10.6 µM | 28.9 µM | 5.29 µM | 16.8 µM | 3.35 µM | 17.2 µM | 5.88 µM | 30.4 µM | 0.573 µM | 8.04 µM | 3.79 µM | 14.3 µM | 13.1 µM | 38 µM | 3.51 µM | 16.3 µM | 6.36 µM | 47.5 µM
O=C(/C=C/c1ccccc1O)c1ccccc1 | 12.1 µM | 25.3 µM | 17.3 µM | 38 µM | 1.56 µM | 4.12 µM | 11 µM | 29.2 µM | 5.5 µM | 20.4 µM | 1.68 µM | 15.7 µM | 17.9 µM | 32.6 µM | 2.51 µM | 14.1 µM | 10.9 µM | 26.4 µM | 9.1 µM | 22 µM
C[C@@]12CCC[C@@](C)(C(=O)O)C1CC[C@]13C=C(CO)[C@](O)(CCC12)C3 (stereo not given in full) | > 100 µM | > 100 µM | > 100 µM | > 100 µM | > 100 µM | > 100 µM | > 100 µM | > 100 µM | > 100 µM | > 100 µM | > 100 µM | > 100 µM | > 100 µM | > 100 µM | > 100 µM | > 100 µM | > 100 µM | > 100 µM | > 100 µM | > 100 µM
Clc1ccc(-c2nc(-c3c[nH]c4ncccc34)cs2)cc1 | > 100 µM | > 100 µM | > 100 µM | > 100 µM | 4.78 µM | > 100 µM | 0.582 µM | > 100 µM | > 100 µM | > 100 µM | > 100 µM | > 100 µM | > 100 µM | > 100 µM | > 100 µM | > 100 µM | > 100 µM | > 100 µM | > 100 µM | > 100 µM
COc1cc(-c2nn(C)nc2-c2cc3ccccc3s2)cc(OC)c1OC | 51.5 µM | > 100 µM | 0.082 µM | 0.515 µM | 0.707 µM | > 100 µM | 0.466 µM | > 100 µM | 16.9 µM | > 100 µM | 0.744 µM | > 100 µM | 0.407 µM | > 100 µM | 0.0428 µM | > 100 µM | 0.036 µM | 15.3 µM | 0.0232 µM | 0.0787 µM
CCC1(O)C(=O)OCc2c1cc1n(c2=O)Cc2c-1nc1ccccc1c2OC (stereo not given) | – | 2.68 µM | – | 13.9 µM | – | 5.65 µM | – | > 54.5 µM | – | 25.3 µM | – | 0.249 µM | – | 5.77 µM | – | > 100 µM | – | 11.3 µM | – | 0.984 µM
O=C1OCC2=C1C(c1cccc([N+](=O)[O-])c1)c1cc3c(cc1N2CCO)CCC3 (stereo not given) | 11.5 µM | > 50 µM | 0.153 µM | 2.39 µM | 0.255 µM | > 50 µM | 0.28 µM | > 50 µM | 0.504 µM | 35.1 µM | 0.269 µM | > 34.3 µM | 0.188 µM | 9.58 µM | 0.0666 µM | > 50 µM | 0.0789 µM | 16.4 µM | 0.0431 µM | 6.3 µM
C=C1C(=O)O[C@H]2[C@H]1CC/C(COC(=O)NCc1c[nH]c3ccc(OC)cc13)=C\CC[C@@]1(C)O[C@@H]21 | 2.02 µM | 5.01 µM | 1.22 µM | 2.71 µM | 2.55 µM | 7.38 µM | 2.07 µM | 6.2 µM | 2.14 µM | 4.24 µM | 1.74 µM | 3.12 µM | 5.77 µM | 19 µM | 0.279 µM | 11.2 µM | 10.4 µM | 22.3 µM | 0.89 µM | 2.38 µM
COC1OC(COCc2ccc(Cl)cc2)C(OCc2ccc(Cl)cc2)C1O (stereo not given) | – | 30.7 µM | – | 34.3 µM | – | 50.9 µM | – | 46.3 µM | – | 30.3 µM | – | 29.4 µM | – | 32.6 µM | – | 38.5 µM | – | 32.3 µM | – | 27.5 µM
COc1c(Nc2ncc(Cl)c(N[C@@H]3[C@H]4C=CC(C4)[C@@H]3C(N)=O)n2)ccc2c1CC[C@@H](N1CCOCC1)CC2 | 4.81 µM | 19.8 µM | 1.74 µM | 5.5 µM | 5.3 µM | 35.8 µM | 1.3 µM | 10.2 µM | 1.7 µM | 14.6 µM | 2.07 µM | 10.7 µM | 9.61 µM | 23.6 µM | 5.52 µM | 59.7 µM | 4.47 µM | 17.8 µM | 5.47 µM | 15 µM
Nc1nn(C(=O)Nc2ccc(Cc3ccccc3)cc2)c2ccc(Cl)cc12 | 10.1 µM | > 100 µM | 1.92 µM | 28.9 µM | 19.9 µM | > 100 µM | 5.85 µM | 98.8 µM | 12 µM | > 74 µM | 5.9 µM | 82.7 µM | 0.211 µM | 1.48 µM | 0.0343 µM | 16.9 µM | 0.122 µM | 19.9 µM | 7.96 µM | > 100 µM
O=C(Nc1cccnc1)c1cccs1 | > 100 µM | > 100 µM | 3.08 µM | > 100 µM | > 100 µM | > 100 µM | > 100 µM | > 100 µM | > 100 µM | > 100 µM | > 100 µM | > 100 µM | 5.56 µM | > 100 µM | 0.728 µM | > 100 µM | 5.04 µM | > 100 µM | > 100 µM | > 100 µM
